“Also recorded” adds a separate entry of the source. Marks after values point to notes of the source that are not given here.
Columns and labels:
hiPSC-CM [1] = test: Beat-to-beat variability (BBV), Poincaré plots; type: cell-based, human; settings: 10 nM
Excerpt: The BBV calculations were done using Kubios HRV2.2 (Department of Applied Physics, University of Eastern Finland, Kuopio, Finland)^4. BBV is visualised as scatterplots known as Poincaré plots. In these plots, each time interval between two successive beats [inter-beat interval (RRn)] is plotted against the subsequent interval (RRn+1). Poincaré plot descriptors SD1 and SD2 define the extent of variability. SD1 represents a measure for short-term variability, whereas SD2 describes long-term variability^5.

CYP3A5 = biological target: T1, CYP3A5 (Homo sapiens, UniProt P20815); test: Metabolic stability (substrate depletion) with CYP3A5; type: in vitro ADME; settings: for elimination rate constant k by CYP3A5 / half-life at 1 μM: 1 μM substrate, CYP3A5 10 pmol/mL; for CLint (CYP3A5): PBPK parameter, in vitro data obtained; for half-life at 1 μM: human, CYP3A5 enzyme, pH 7.4, read-out: T1/2 by CYP3A5; for Intrinsic clearance, CLint CYP3A5: substrate depletion
T1 construct: purchased BD Gentest (Woburn, Mass.)
Experimental: The metabolic stability experiments were performed to derive intrinsic clearance (CLint) values via the substrate depletion method. […] NADPH A was subsequently added to initiate the reaction. […] The reaction mixtures were incubated at 37° C. with gentle agitation. At the respective time points (0-60 min), 80 μL of the reaction mixture was quenched using an equal volume of ice-cold ACN with 1 μM tamoxifen as internal standard (IS). The samples were then centrifuged at 3220 g at 4° C. for 30 min before transferring the supernatant to a 96-well plate for liquid chromatography-tandem mass spectrometry (LC-MS/MS) analysis.
The mean of triplicate peak area ratios for each compound was normalized to that of the same compound at the 0 min time point to obtain the percentage of substrate remaining at each time point. This was plotted against incubation time for each compound and the data was then fitted to a one-phase decay model using GraphPad Prism software (version 8.02; GraphPad Inc., San Diego, Calif.) to obtain an estimation for the elimination rate constant (k). CLint was then calculated based on equation 3:
In equation 3, k=elimination rate constant (min^−1); V=volume of incubation mixture (mL); P=amount of protein in mixture (mg).

hiPSC-CM [2] = test: Extracellular field potential duration (FPD), multi electrode array; type: cell-based, human; settings: MEA, 0-10 μM
Experimental: Electrophysiological perturbations of hiPSC-CM were measured using multi electrode array (MEA) recording system (Multichannel Systems, Reutlingen, Germany). […] FPD measurements were normalized (corrected FPD [cFPD]) to the beating rate of the contracting areas with the Bazzet correction formula: cFPD=FPD/√(RR interval) as described previously^3. One-phase decay algorithm was used to plot corrected FPD curves.

CYP3A4 = biological target: T2, CYP3A4 (Homo sapiens, UniProt P08684); test: Time- and concentration-dependent inactivation of CYP3A4, rivaroxaban probe; type: in vitro ADME; settings: for KI (inactivation): human, recombinant CYP3A4, pH 7.4, probe rivaroxaban (50 μM), in vitro data obtained, rivaroxaban probe, read-out: Mechanism-based inactivation KI CYP3A4
T2 construct: purchased BD Gentest (Woburn, Mass.)
Experimental: Incubations were conducted in triplicates in 96-well plates. Primary incubation mixtures comprising various concentrations of inhibitor (0-20 μM) were pre-incubated at 37° C. for 3 min with CYP3A4 or CYP3A5 (20 pmol/mL) and NADPH B in potassium phosphate buffer (100 mM, pH 7.4). To initiate the enzymatic reaction, 5 μL NADPH A was added to the primary incubation. The final primary incubation mixture volume was 100 μL and contained <1% v/v organic solvent. At different pre-incubation time points (3, 8, 15, 22, 30, and 45 min) after the addition of NADPH A, 5 μL aliquots of the primary incubation were transferred to 95 μL of the secondary incubation containing 50 μM rivaroxaban, the NADPH A and B, and potassium phosphate buffer (100 mM, pH 7.4) to yield a 20-fold dilution. The secondary incubation mixtures were incubated at 37° C. for 2 h with CYP3A4 or CYP3A5 before 80 μL aliquots were removed and quenched with an equal volume of ice-cold ACN containing 4 μM dexamethasone as IS. The samples were then centrifuged at 3220 g at 4° C. for 30 min before transferring the supernatant to a 96-well plate for liquid chromatography-tandem mass spectrometry (LC-MS/MS) analysis. The main rivaroxaban metabolite, morpholinone hydroxylated metabolite, was quantified using LC-MS/MS analysis.
The mean of triplicate peak area ratios for each inhibitor concentration and pre-incubation time was normalized to that of 0 μM inhibitor with the same pre-incubation time. The amount of rivaroxaban metabolite formed during the secondary incubation, a measure of the probe substrate activity remaining, was computed and the natural logarithm of this measure was plotted against inactivation pre-incubation time for each inactivator concentration. For each concentration, the data was then fitted to a linear regression model, through which kobs (apparent inactivation rate constant) was obtained as the negative gradient of the linear regression. […]

T1 sequence (P20815 whole entry): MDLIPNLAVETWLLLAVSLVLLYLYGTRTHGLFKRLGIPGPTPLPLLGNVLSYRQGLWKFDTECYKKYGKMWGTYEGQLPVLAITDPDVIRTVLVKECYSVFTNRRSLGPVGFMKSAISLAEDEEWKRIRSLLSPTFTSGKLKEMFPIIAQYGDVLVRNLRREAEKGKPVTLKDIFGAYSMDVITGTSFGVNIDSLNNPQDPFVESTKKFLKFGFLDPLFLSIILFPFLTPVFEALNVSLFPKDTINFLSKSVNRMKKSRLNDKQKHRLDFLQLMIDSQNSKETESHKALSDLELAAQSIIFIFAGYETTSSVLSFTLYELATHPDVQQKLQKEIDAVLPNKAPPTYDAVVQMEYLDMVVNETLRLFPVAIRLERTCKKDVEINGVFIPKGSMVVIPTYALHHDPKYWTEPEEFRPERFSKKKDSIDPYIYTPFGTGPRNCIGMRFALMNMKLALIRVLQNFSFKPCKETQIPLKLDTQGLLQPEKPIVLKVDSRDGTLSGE
T2 sequence (P08684 whole entry): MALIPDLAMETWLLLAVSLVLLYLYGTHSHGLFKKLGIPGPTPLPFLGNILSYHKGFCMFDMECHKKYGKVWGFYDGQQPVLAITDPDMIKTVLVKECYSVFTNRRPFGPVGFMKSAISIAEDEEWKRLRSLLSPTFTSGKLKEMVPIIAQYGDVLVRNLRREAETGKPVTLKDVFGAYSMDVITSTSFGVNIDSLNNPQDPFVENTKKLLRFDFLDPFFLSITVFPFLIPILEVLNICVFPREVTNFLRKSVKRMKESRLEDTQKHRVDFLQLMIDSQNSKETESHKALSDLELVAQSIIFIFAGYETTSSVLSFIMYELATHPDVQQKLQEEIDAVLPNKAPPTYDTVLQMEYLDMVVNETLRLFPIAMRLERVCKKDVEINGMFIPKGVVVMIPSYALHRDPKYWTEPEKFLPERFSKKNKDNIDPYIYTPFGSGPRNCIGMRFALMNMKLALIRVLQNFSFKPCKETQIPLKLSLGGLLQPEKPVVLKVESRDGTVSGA

Compound	beat-to-beat variability (BBV), inter-beat intervals in Poincaré plot (hiPSC-CM [1])	elimination rate constant k by CYP3A5 (CYP3A5) [min⁻¹]	CLint (CYP3A5) (CYP3A5)	half-life at 1 μM (CYP3A5) [min]	Intrinsic clearance, CLint CYP3A5 (CYP3A5) [µL/min/pmol]	Intrinsic clearance, CLint CYP3A5 (CYP3A5; listed as dronedarone) [µL/min/pmol]	effect on extracellular field potential duration (FPD) (hiPSC-CM [2])	KI (inactivation) (CYP3A4) [µM]	MBI potency against CYP3A4 (CYP3A4; rivaroxaban probe substrate) [AV min^−1]	Intrinsic clearance, CLint CYP3A5 (CYP3A5; listed as poyendarone) [µL/min/pmol]
CCCCc1oc2ccc(NS(C)(=O)=O)cc2c1C(=O)c1ccc(OCCCN(CCCC)CCCC)cc1.Cl [Dronedarone]	do not cluster at the centroid of the ellipse and diffuse across the plot	0.03989	14.1812* μL/min/mg microsomal protein	17.4	3.99	3.989	Dose-dependent increase in the FPD	5.3	0.00505	–
Cl.[2H]c1c(NS(C)(=O)=O)c([2H])c2c(C(=O)c3ccc(OCCCN(CCCC)CCCC)cc3)c(CCCC)oc2c1[2H] [Poyendarone, Methanesulfonamide, N-(2-butyl-3-(4-(3-(dibutylamino)propoxy)benzoyl)-1-benzo(4,6,7-d3)-furan-5-yl)hydrochloride]	least variability among the beats; also recorded: lack of beat-to-beat variability (BBV)	0.02757	14.2384* μL/min/mg microsomal protein	25.1	2.76	–	Dose-dependent increase in the FPD	3.19	–	2.757

Source: patent US20220267288A1, “CARDIAC THERAPEUTIC” (priority 2019, published 2022)
